# Results from US20200165312A1, “COSMETIC COMPOSITION FOR IMPROVING SKIN CONDITIONS COMPRISING FUSION PROTEIN INCLUDING SKIN PENETRATION ENHANCING PEPTIDE” (LG HOUSEHOLD & HEALTH CARE LTD., priority 2017, published 2020).
# Experiments:
# dermal papilla cells = test: Hair follicle stem cell proliferation: dermal papilla cells, Cell Counter Kit-8; format: cell-based; details: for Proliferation (%): control = 100
# Method: (§1) Specifically, dermal papilla cells were inoculated onto a 96-well plate and cultured for 24 hours to obtain cultures at a density of 6,000 cells per well. The cultures were washed with PBS and cultured in a serum-free DMEM medium for one day. The cells were washed with PBS again and cultured in a serum-free DMEM medium supplemented with 1 ng/mL T-PDGFa or PDGFa for one day. The cultures were obtained therefrom and a difference between proliferated amounts of cells was quantitively analyzed using the Cell Counter Kit-8 (Dojindo). Here, dermal papilla cells cultured in a serum-free DMEM medium without T-PDGFa or PDGFa were used as a control (Table 6).
# Specifically, dermal papilla cells were inoculated onto a 96-well plate and cultured for 24 hours to obtain cultures at a density of 6,000 cells per well. The cultures were washed with PBS and cultured in a serum-free DMEM medium for one day. […] The cultures were obtained therefrom and a difference between proliferated amounts of cells was quantitively analyzed using the Cell Counter Kit-8 (Dojindo).
# as §1, with “T-IGF-1” for “T-PDGFa”, “IGF-1” for “PDGFa”, “15).” for “6).”
# as §1, with “10” for “1”, “T-KGF” for “T-PDGFa”, “KGF” for “PDGFa”, “19).” for “6).”
# as §1, with “10” for “1”, “T-Tβ4” for “T-PDGFa”, “Tβ4” for “PDGFa”, “23).” for “6).”
# [1] = Skin retentivity of growth factor fusion proteins (porcine skin disrupted, ELISA); format: in vitro ADME; details: for Remaining amount (%): skin after 16 hours penetration test
# Method: (§2) Specifically, the porcine skin remained after the experiment of Example 3-2-4 was recovered, frozen in liquid nitrogen, and disrupted. An amount of PDGFa or T-PDGFa contained therein was quantitatively analyzed using the ELISA kit (R&D Systems). In addition, a relative amount of T-PDGFa to PDGFa was calculated as a remaining amount (Table 8).
# Specifically, the porcine skin remained after the experiment of Example 3-3-4 was recovered, frozen in liquid nitrogen, and disrupted. An amount of VEGF or T-VEGF contained therein was quantitatively analyzed using the ELISA kit (R&D Systems).
# as §2, with “3-4-4” for “3-2-4”, “IGF-1” for “PDGFa”, “T-IGF-1” for “T-PDGFa”, “17).” for “8).”
# as §2, with “3-5-3” for “3-2-4”, “KGF” for “PDGFa”, “T-KGF” for “T-PDGFa”, “21).” for “8).”
# as §2, with “3-6-3” for “3-2-4”, “Tβ4” for “PDGFa”, “T-Tβ4” for “T-PDGFa”, “25).” for “8).”
substance,measurement,setting,value
IGF-1: insulin-like growth factor-1 having an amino acid sequence of SEQ ID NO: 41,Proliferation (%),"dermal papilla cells; 1 ng/mL T-IGF-1 or IGF-1, one day",440 ± 45%
same,Remaining amount (%),[1]; relative to IGF-1,100 ± 28%
PDGFa: platelet-derived growth factor subunit a having an amino acid sequence of SEQ ID NO: 35,Proliferation (%),"dermal papilla cells; 1 ng/mL T-PDGFa or PDGFa, one day",1030 ± 19%
same,Remaining amount (%),[1]; relative to PDGFa,100 ± 20%
T-Tβ4: SEQ ID NO: 1 peptide C-terminal linked to N-terminal of Tβ4 via GG linker (NGSLNTHLAPILGGSDKPDMAEIEKFDKSKLKKTETQEKNPLPSKETIEQEKQAGES; Synthetic Fusion protein of T-T beta 4),Proliferation (%),"dermal papilla cells; 10 ng/mL T-Tβ4 or Tβ4, one day",220 ± 16%
same,cell proliferation effect compared with the unfused protein,dermal papilla cells; dermal papilla cells,same level
same,Remaining amount (%),[1]; relative to Tβ4,"9,600 ± 450%"
same,skin retentivity higher than the unfused protein,"[1]; summary of Tables 8, 13, 17, 21, 25",about 100 times
Tβ4: thymosin beta 4 having an amino acid sequence of SEQ ID NO: 47,Proliferation (%),"dermal papilla cells; 10 ng/mL T-Tβ4 or Tβ4, one day",260 ± 20%
same,Remaining amount (%),[1]; relative to Tβ4,100 ± 17%
